Laboratory results published in patent US7414154B2, “Polyamine compounds and compositions for use in conjunction with cancer therapy” (Wisconsin Alumni Research Foundation, priority 2002, dated 2008).

What was measured:
23SK skin cells = assay: cell cycle distribution by flow cytometry; assay type: cell-based, human; details: 23SK cells
Excerpt: FIGS. 5A-5D are cell histograms showing the results from flow cytometry analysis of chemoprotective polyamine-treated 23SK skin cells.
In FIG. 5, cell histograms showing the results from flow cytometry analysis of chemoprotective polyamine-treated 23SK skin cells are shown. […] The transient nature of the cell cycle block induced by chemoprotective polyamines is believed to be an important aspect of their efficacy, i.e., their ability to block cell cycle progression in stem cells during the course of chemo- or radiotherapy, and the resumption of normal stem cell division after a given cancer therapy course has been completed.

[1] = tested on: p21 protein in 23SK human skin cells; assay: p21 induction by western analysis; assay type: cell-based; details: 30 hr exposure
Method: FIGS. 3A and 3B illustrate the level of induced p21 protein seen in diploid human fibroblasts after a 30 hr exposure to each of the indicated chemoprotective polyamines. […] In these experiments, the 23SK human skin cells were exposed for 30 hr to an “IC80” dose of each of the indicated chemoprotective polyamines and then lysed. Cell extracts were then prepared in order to measure p21 levels by western analysis (FIG. 3A).
FIG. 3 illustrates that chemoprotective polyamines are able to induce expression of the negative cell cycle regulatory protein, p21, after exposing the human skin cells to the polyamine molecules. […] In these experiments, the 23SK human skin cells were exposed for 30 hr to an “IC80” dose of each of the indicated chemoprotective polyamines and then lysed. Cell extracts were then prepared in order to measure p21 levels by western analysis (FIG. 3A). Although the ability of modified polyamines to induce p21 is known in the literature (Kramer, D. et al., Cancer Res. 59:1278-1286, 1999), it is a novel aspect of this invention that those chemoprotective polyamines with longer aliphatic “arms” were better able to induce expression of p21 as shown in FIG. 4.

Structure (SMILES)	Cell Cycle Distribution At IC80 Dose (%) G1 (23SK skin cells)	Cell Cycle Distribution At IC80 Dose (%) G2/M (23SK skin cells)	Cell Cycle Distribution At IC80 Dose (%) S (23SK skin cells)	p21 fold-induction at IC80 Dose [1]
CCNCCCCNCCCCNCCCCNCC=C(CS)CNCCCCNCCCCNCCCCNCC [PrC-116]	66%	23%	11%	
CCNCCCCNCCCCNCCCCNCCCCNCC=C(CS)CNCCCCNCCCCNCCCCNCCCCNCC [PrC-117]	86%	3%	11%	~3.0 fold
CCNCCCCNCCCCNCCCCNCCCCNCC=C(CNCCCCNCCCCNCCCCNCCCCNCC)CN(C)C [PrC-121]	76%	20%	4%	
